pIC50: −log10 of the molar value.
Experiments:
Type in all cases: biochemical
MMP-16 = target: T1, MMP-16 (Homo sapiens, UniProt P51512); experiment: In vitro MMP-16 inhibition test
T1 construct: purchased R&D Systems 1785-MP
Source text: (§1) The activity strength of the compounds according to the invention towards other MMPs (and therefore their selectivity) is likewise ascertained in in vitro inhibition tests. The MMP-mediated amidolytic cleavage of a suitable peptide substrate also leads here to a fluorescent light increase. The signal intensity of the fluorescent light is directly proportional to the enzyme activity. The active concentration of a test compound at which half of the enzyme is inhibited (50% signal intensity of the fluorescent light) is given as IC50 value.
(§2) Recombinant MMP-16 (R&D Systems, 1785-MP) is enzymatically activated in accordance with the manufacturer's instructions using recombinant furin (R&D Systems, 1503-SE). 1 μl of the test compound to be analysed (as a solution in DMSO, suitable concentrations e.g. 1 nM to 30 μM) is pipette into 24 μl of activated enzyme (final concentration e.g. 1 nM) in reaction buffer (50 mM Tris/HCl pH 7.5, 10 mM CaCl2, 150 mM NaCl, 0.05% Brij®-35) in a white 384-hole microtiter plate (MTP). The enzymatic reaction is started by adding the intramolecularly quenched substrate Mca-Lys-Pro-Leu-Gly-Leu-Dpa(Dnp)-Ala-Arg-NH2 (final concentration e.g. 5 μM; R&D Systems, ES-010), such that a total test volume of 50 μl results. The progress of the MMP-16 reaction is measured by measuring the fluorescence intensity (excitation 320 nm, emission 410 nm) over a suitable period (e.g. over 120 min at a temperature of 32° C.).
(§3) The IC50 values were determined for racemates and enantiomers from differently generated DMSO stock solutions. Whereas an automatically produced DMSO stock solution from the internal substance logistics was used for racemates by means of a standard method, in the case of enantiomers a freshly produced, manually prepared DMSO stock solution was used in each case for a more precise direct comparison of the enantiomers with one another.

MMP-13 = target: T2, MMP-13 (Homo sapiens, UniProt P45452); experiment: In vitro MMP-13 inhibition test
T2 construct: purchased R&D Systems 511-MP
Source text: as §1
Recombinant MMP-13 (R&D Systems, 511-MP) is chemically activated in accordance with the manufacturer's instructions using APMA. 1 μl of the test compound to be analysed (as a solution in DMSO, suitable concentrations e.g. 1 nM to 30 μM) is pipette into 24 μl of activated enzyme (final concentration e.g. 0.1 nM) in reaction buffer (50 mM Tris/HCl pH 7.5, 10 mM CaCl2, 150 mM NaCl, 0.05% Brij®-35) in a white 384-hole microtiter plate (MTP). The enzymatic reaction is started by adding the intramolecularly quenched substrate Mca-Pro-Leu-Gly-Leu-Dpa(Dnp)-Ala-Arg-NH2 (final concentration e.g. 10 μM; R&D Systems, ES-001), such that a total test volume of 50 μl results. The progress of the MMP-13 reaction is measured by measuring the fluorescence intensity (excitation 320 nm, emission 410 nm) over a suitable period (e.g. over 120 min at a temperature of 32° C.).
as §3

MMP-8 of the rat = target: T3, MMP-8 of the rat (Rattus norvegicus, UniProt O88766); experiment: In vitro MMP-8 inhibition test of the rat
T3 construct: purchased R&D Systems 3245-MP
Source text: as §1
as §2, with “Recombinant MMP-8 of the rat” for “Recombinant MMP-16”, “Systems, 3245-MP)” for “Systems, 1785-MP)”, “is chemically” for “is enzymatically”, “using APMA. […]” for “using recombinant furin (R&D Systems, 1503-SE). 1”, “is pipetted” for “is pipette”, “the MMP-8” for “the MMP-16”
(§4) Tables 3A and 3B below give the IC50 values from these tests for the inhibition of rodent MMPs for representative embodiment examples of the present invention and also for two structurally related comparison compounds from the prior art (as racemate and separated enantiomer)→(in part as average values from several independent individual determinations and rounded to two significant places). The IC50 values were determined for racemates and enantiomers from differently generated DMSO stock solutions. Whereas an automatically created DMSO stock solution from the internal substance logistics was used for racemates by means of a standard method, in the case of enantiomers, in each case a freshly produced, manually prepared DMSO stock solution was used for a more precise direct comparison of the enantiomers with one another.

MMP-12 of the mouse = target: T4, MMP-12 of the mouse (Mus musculus, UniProt P34960); experiment: In vitro MMP-12 inhibition test of the mouse (standard / high-sensitivity)
T4 construct: purchased R&D Systems 3467-MP
Source text: as §1
as §2, with “Recombinant MMP-12 of the mouse” for “Recombinant MMP-16”, “Systems, 3467-MP)” for “Systems, 1785-MP)”, “is autocatalytically” for “is enzymatically”, “manufacturer's instructions.” for “manufacturer's instructions using recombinant furin (R&D Systems, 1503-SE).”, “is pipetted” for “is pipette”, “the MMP-12” for “the MMP-16”
If subnanomolar IC values are produced for high-potency test substances in the above-described MMP-12 inhibition test of the mouse, then a modified test is used for their more precise determination. Here, a ten-fold lower enzyme concentration is used (final concentration e.g. 0.1 nM), in order to achieve an increased sensitivity of the test. The incubation time of the test is correspondingly chosen to be longer (e.g. 16 hours).
as §4

T4 sequence (P34960 110-473): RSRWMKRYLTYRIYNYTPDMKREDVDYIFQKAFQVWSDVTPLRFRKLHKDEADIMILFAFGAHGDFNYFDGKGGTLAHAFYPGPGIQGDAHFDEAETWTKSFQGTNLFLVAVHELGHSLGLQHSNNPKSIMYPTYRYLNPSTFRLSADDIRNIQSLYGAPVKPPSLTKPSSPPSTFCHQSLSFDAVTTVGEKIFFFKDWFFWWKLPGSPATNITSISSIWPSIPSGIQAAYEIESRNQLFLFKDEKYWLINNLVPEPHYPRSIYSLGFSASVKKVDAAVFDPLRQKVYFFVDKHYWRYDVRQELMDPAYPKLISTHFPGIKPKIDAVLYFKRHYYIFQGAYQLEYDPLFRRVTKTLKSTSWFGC
T3 sequence (O88766 102-466): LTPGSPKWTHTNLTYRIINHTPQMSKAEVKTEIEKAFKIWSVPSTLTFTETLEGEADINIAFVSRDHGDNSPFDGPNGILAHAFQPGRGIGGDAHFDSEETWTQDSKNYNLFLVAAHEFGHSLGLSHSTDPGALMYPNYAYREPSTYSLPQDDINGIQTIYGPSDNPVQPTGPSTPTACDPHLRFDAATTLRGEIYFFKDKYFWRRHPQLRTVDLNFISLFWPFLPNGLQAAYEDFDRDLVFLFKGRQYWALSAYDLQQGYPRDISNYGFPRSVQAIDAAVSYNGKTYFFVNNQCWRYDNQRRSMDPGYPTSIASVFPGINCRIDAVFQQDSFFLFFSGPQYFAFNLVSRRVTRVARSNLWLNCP
T1 sequence (P51512 120-607): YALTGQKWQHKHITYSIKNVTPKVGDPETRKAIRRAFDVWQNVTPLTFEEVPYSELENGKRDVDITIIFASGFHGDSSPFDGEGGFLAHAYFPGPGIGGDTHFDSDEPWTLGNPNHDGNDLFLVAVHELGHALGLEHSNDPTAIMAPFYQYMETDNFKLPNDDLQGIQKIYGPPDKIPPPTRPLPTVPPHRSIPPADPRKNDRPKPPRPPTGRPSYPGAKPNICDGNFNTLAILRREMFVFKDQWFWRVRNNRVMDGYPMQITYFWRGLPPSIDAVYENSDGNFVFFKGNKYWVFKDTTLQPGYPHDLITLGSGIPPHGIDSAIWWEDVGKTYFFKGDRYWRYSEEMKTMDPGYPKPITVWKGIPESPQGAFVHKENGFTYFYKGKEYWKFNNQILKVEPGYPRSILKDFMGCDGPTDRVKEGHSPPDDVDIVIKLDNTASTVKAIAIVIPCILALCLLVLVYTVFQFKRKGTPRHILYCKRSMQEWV

Q: How did the pIC50 (MMP-16) turn out when `O=C(O)[C@H]1[C@H](Cn2nnc3ccccc3c2=O)CC[C@@H]1C(=O)c1ccc(-c2ccc(Cl)cc2)cc1` (racemic) [Comparative Example A-1, (1RS,2RS,5SR)-2-[(4′-chlorobiphenyl-4-yl)carbonyl]-5-[(4-oxo-1,2,3-benzotriazin-3(4H)-yl)methyl]cyclopentanecarboxylic acid (racemate)] was run?
A: 7.80

Q: What about the pIC50 (MMP-13) of the same molecule?
A: 8.74

Q: What about the pIC50 (MMP-8 of the rat) of the same molecule?
A: 8.85

Q: And the pIC50 (MMP-12 of the mouse)?
A: > 9.21

Q: `CCCCCOc1ccc(C(=O)CC(CCn2nnc3ccccc3c2=O)C(=O)O)cc1` (racemic) [Comparative Example B-1, (+/−)-4-Oxo-2-[2-(4-oxo-1,2,3-benzotriazin-3(4H)-yl)ethyl]-4-[4-(pentyloxy)phenyl]butanoic acid (racemate)] was tested. Which pIC50 (MMP-16) did it give?
A: 4.66

Q: And the pIC50 (MMP-13)?
A: 5.74

Q: And the pIC50 (MMP-8 of the rat)?
A: 5.46

Q: And the pIC50 (MMP-12 of the mouse)?
A: 7.49

Q: How did the pIC50 (MMP-16) turn out when `O=C(O)[C@H]1[C@H](Cn2nnc3ccccc3c2=O)CC[C@@H]1C(=O)c1ccc(OCc2ccccc2)cc1` (racemic) [Example 1, (+/−)-(1RS,2RS,5SR)-2-[4-(Benzyloxy)benzoyl]-5-[(4-oxo-1,2,3-benzotriazin-3(4H)-yl)methyl]cyclopentanecarboxylic acid (racemate)] was run?
A: 6.89

Q: And the pIC50 (MMP-13)?
A: 7.52

Q: And the pIC50 (MMP-8 of the rat)?
A: 7.00

Q: What about the pIC50 (MMP-12 of the mouse) of the same molecule?
A: 9.27

Q: With `CCCCCOc1ccc(C(=O)CC(CCn2nnc3ccccc3c2=O)C(=O)O)cc1` (single isomer, unassigned; enantiomer 1) [Comparative Example B-2, (+)-4-Oxo-2-[2-(4-oxo-1,2,3-benzotriazin-3(4H)-yl)ethyl]-4-[4-(pentyloxy)phenyl]butanoic acid (enantiomer 1)] as the molecule, how does the pIC50 (MMP-16) read?
A: 5.17

Q: And the pIC50 (MMP-13)?
A: 6.44

Q: And the pIC50 (MMP-8 of the rat)?
A: 5.98

Q: And the pIC50 (MMP-12 of the mouse)?
A: 7.74

Q: With `O=C(O)[C@@H]1[C@@H](Cn2nnc3ccccc3c2=O)CC[C@H]1C(=O)c1ccc(-c2ccc(Cl)cc2)cc1` (single isomer, unassigned; enantiomer 2) [Comparative Example A-3, (1RS,2RS,5SR)-2-[(4′-Chlorobiphenyl-4-yl)carbonyl]-5-[(4-oxo-1,2,3-benzotriazin-3(4H)-yl)methyl]cyclopentanecarboxylic acid (enantiomer 2)] as the molecule, how does the pIC50 (MMP-16) read?
A: 8.28

Q: What about the pIC50 (MMP-13) of the same molecule?
A: 9.09

Q: What about the pIC50 (MMP-8 of the rat) of the same molecule?
A: 8.85

Q: And the pIC50 (MMP-12 of the mouse)?
A: 10.00

Q: `O=C(O)[C@H]1[C@H](Cn2nnc3ccccc3c2=O)CC[C@@H]1C(=O)c1ccc(OCc2ccccc2)cc1` [Example 2, (+)-(1S,2S,5R)-2-[4-(Benzyloxy)benzoyl]-5-[(4-oxo-1,2,3-benzotriazin-3(4H)-yl)methyl]cyclopentanecarboxylic acid] was tested. Which pIC50 (MMP-16) did it give?
A: 7.11

Q: What about the pIC50 (MMP-13) of the same molecule?
A: 7.84

Q: And the pIC50 (MMP-8 of the rat)?
A: 7.41

Q: And the pIC50 (MMP-12 of the mouse)?
A: 9.89

Reference: US20170119776A1, “CHIRAL 2,5-DISUBSTITUTED CYCLOPENTANECARBOXYLIC ACID DERIVATIVES AND USE THEREOF” (BAYER PHARMA AKTIENGESELLSCHAFT, priority 2014, published 2017)
